Reference: US12466790B1, “Bis urea-based organoselenium compound and method for treating cancer” (IMAM MOHAMMAD IBN SAUD ISLAMIC UNIVERSITY, priority 2024, dated 2025)

Key:
[1] = system: human squamous cell carcinoma of the oral tongue (HN9); assay: SRB growth inhibition assay, HN9; type: cell-based; conditions: HN9 cells, 100 μg/mL, 48 h incubation, read-out: growth inhibition percentage
Protocol: (§1) The antitumor activities of the bis-(organoselanyl urea)aryl agent against all tested cell lines were evaluated by sulphorhodamine-B (SRB) assay. Briefly, cells were seeded at a density of 3×10^3 cells/well in 96-well microtiter plates. They were left to attach for 24 h before incubation with the aforementioned compound. Next, cells were treated with 100 μg/mL for bis-(organoselanyl urea)aryl agent. For each concentration, three wells were used, and incubation was continued for 48 h. DMSO was used as a control vehicle (1% v/v). At the end of incubation, cells were fixed with 20% trichloroacetic acid and stained with 0.4% SRB dye. The optical density (O.D.) of each well was measured spectrophotometrically at 570 nm using an ELISA microplate reader (TECAN Sunrise™, Germany). The mean survival fraction at each drug concentration was calculated as follows: O.D. of the treated cells/O.D. of the control cells. The IC50 (concentration that produces 50% of cell growth inhibition) value of bis-(organoselanyl urea)aryl agent was calculated using sigmoidal dose-response curve-fitting models.

[2] = system: hepatocellular carcinoma (HuH7); assay: SRB growth inhibition assay, HuH7; type: cell-based; conditions: Homo sapiens, Huh-7, HuH7 cells, 100 μg/mL, 48 h incubation, read-out: growth inhibition percentage
Protocol: as §1

[3] = system: pharynx squamous carcinoma (FaDu); assay: SRB growth inhibition assay, FaDu; type: cell-based; conditions: Homo sapiens, FaDu cells, 100 μg/mL, 48 h incubation, read-out: growth inhibition percentage
Protocol: as §1

[4] = system: breast cancer cell line (MCF7); assay: SRB growth inhibition assay, MCF7; type: cell-based; conditions: Homo sapiens, MCF7 cells, 100 μg/mL, 48 h incubation, read-out: growth inhibition percentage
Protocol: as §1

[5] = system: hepatocellular carcinoma (HEPG2); assay: SRB growth inhibition assay, HEPG2; type: cell-based; conditions: Homo sapiens, HEPG2 cells, 100 μg/mL, 48 h incubation, read-out: growth inhibition percentage
Protocol: as §1

[6] = system: non-small cell lung cancer (A549); assay: SRB growth inhibition assay, A549; type: cell-based; conditions: Homo sapiens, A549 cells, 100 μg/mL, 48 h incubation, read-out: growth inhibition percentage
Protocol: as §1

[7] = system: colorectal carcinoma (HCT116); assay: SRB growth inhibition assay, HCT116; type: cell-based; conditions: Homo sapiens, HCT-116, HCT116 cells, 100 μg/mL, 48 h incubation, read-out: growth inhibition percentage
Protocol: as §1

melanoma cancer (A375) = assay: SRB growth inhibition assay, A375; type: cell-based; conditions: Homo sapiens, A-375, A375 cells, 100 μg/mL, 48 h incubation, read-out: growth inhibition percentage
Protocol: as §1

[8] = system: human skin fibroblast normal cell (HSF); conditions: 48 h, 100 μg/mL
Protocol: as §1

[9] = system: normal oral epithelial cell line (OEC); conditions: 48 h, 100 μg/mL
Protocol: as §1

| SMILES | inhibition at 100 µg/mL [1] | inhibition at 100 µg/mL [2] | inhibition at 100 µg/mL [3] | inhibition at 100 µg/mL [4] | inhibition at 100 µg/mL [5] | inhibition at 100 µg/mL [6] | inhibition at 100 µg/mL [7] | inhibition at 100 µg/mL (melanoma cancer (A375)) | growth inhibition percentage (safety, normal cells) [8] | growth inhibition percentage (safety, normal cells) [9] |
| --- | --- | --- | --- | --- | --- | --- | --- | --- | --- | --- |
| C[Se]c1ccc(NC(=O)Nc2ccc(Cc3ccc(NC(=O)Nc4ccc([Se]C)cc4)cc3)cc2)cc1 [HB190, 1,1′-(methylenebis(4,1-phenylene))bis(3-(4-(methylselanyl)phenyl)urea)] | 74% | 88.6% | 77.3% | 67.7% | 76.2% | 74.4% | 85.3% | 66.8% | 9.76% | 7.32% |
| COc1cccc2c1C(=O)c1c(O)c3c(c(O)c1C2=O)C[C@@](O)(C(=O)CO)C[C@@H]3O[C@H]1C[C@H](N)[C@H](O)[C@H](C)O1 [doxorubicin, reference compound] | 51.7% | 68% | 79.3% | 58.6% | 55.6% | 39.1% | 64.3% | 78.2% | – | – |
